# Results published in ChEMBL document CHEMBL5241120, “Insights into the medicinal chemistry of heterocycles integrated with a pyrazolo[1,5-a]pyrimidine scaffold” (RSC Med Chem, 2022).
# Key:
# Candida albicans = experiment: Antifungal activity against Candida albicans assessed as zone of inhibition; type: functional
# [1] = target: T1, Prostaglandin G/H synthase 1 (Ovis aries, UniProt P05979); experiment: Inhibition of ovine COX-1
# T1 sequence (P05979 whole entry): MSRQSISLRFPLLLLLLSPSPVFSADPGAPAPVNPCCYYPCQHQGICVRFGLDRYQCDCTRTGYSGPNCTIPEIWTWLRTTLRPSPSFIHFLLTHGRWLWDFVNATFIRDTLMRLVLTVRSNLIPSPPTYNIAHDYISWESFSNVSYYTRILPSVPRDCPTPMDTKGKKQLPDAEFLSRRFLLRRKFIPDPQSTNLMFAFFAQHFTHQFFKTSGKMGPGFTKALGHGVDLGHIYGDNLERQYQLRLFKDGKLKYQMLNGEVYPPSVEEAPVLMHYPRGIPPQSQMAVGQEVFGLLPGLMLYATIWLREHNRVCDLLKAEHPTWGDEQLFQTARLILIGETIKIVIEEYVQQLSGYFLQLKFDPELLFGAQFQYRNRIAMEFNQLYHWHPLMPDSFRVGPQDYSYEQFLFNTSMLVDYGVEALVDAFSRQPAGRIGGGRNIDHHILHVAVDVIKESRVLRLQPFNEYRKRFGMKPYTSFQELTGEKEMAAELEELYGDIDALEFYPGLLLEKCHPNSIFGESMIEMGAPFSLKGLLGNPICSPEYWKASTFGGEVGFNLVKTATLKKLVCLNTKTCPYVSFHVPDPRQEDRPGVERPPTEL
# [2] = Inhibition of soybean 15-LOX; design: species or system Glycine max
# Salmonella enterica = experiment: Antibacterial activity against Salmonella enterica assessed as zone of inhibition; type: functional
# Escherichia coli [3] = experiment: Antibacterial activity against Escherichia coli assessed as zone of inhibition; type: functional
# Aspergillus niger [4] = experiment: Antifungal activity against Aspergillus niger by dry weight method; type: functional
# Aspergillus flavus = experiment: Antifungal activity against Aspergillus flavus by dry weight method; type: functional; design: unit not given beside the values
# Fusarium verticillioides = experiment: Antifungal activity against Fusarium moniliforme by dry weight method; type: functional
# Rattus norvegicus = experiment: Analgesic activity in Sprague-Dawley rat at 15 mg/kg after 2 hrs by hot plate test; type: functional
# HepG2 = experiment: Cytotoxicity against human HepG2 cells by MTT assay; type: functional, cell-based
# HCT-116 = experiment: Cytotoxicity against human HCT-116 cells by MTT assay; type: functional, cell-based
# MCF7 = experiment: Cytotoxicity against human MCF7 cells by MTT assay; type: functional, cell-based
# Staphylococcus aureus [5] = experiment: Antibacterial activity against Staphylococcus aureus assessed as zone of inhibition; type: functional
# Bacillus subtilis [6] = experiment: Antibacterial activity against Bacillus subtilis assessed as zone of inhibition; type: functional
# Pseudomonas aeruginosa [7] = experiment: Antibacterial activity against Pseudomonas aeruginosa; type: functional
# Escherichia coli [8] = experiment: Antibacterial activity against Escherichia coli; type: functional
# Bacillus subtilis [9] = experiment: Antibacterial activity against Bacillus subtilis; type: functional
# Staphylococcus aureus [10] = experiment: Antibacterial activity against Staphylococcus aureus; type: functional
# Pseudomonas aeruginosa [11] = experiment: Antibacterial activity against Pseudomonas aeruginosa assessed as zone of inhibition; type: functional
# HeLa = experiment: Cytotoxicity against human HeLa cells by MTT assay; type: functional, cell-based
# SiHa = experiment: Cytotoxicity against human SiHa cells by MTT assay; type: functional, cell-based
# Aspergillus niger [12] = experiment: Antifungal activity against Aspergillus niger assessed as zone of inhibition; type: functional
compound,measurement,setting,value
COC1=CC(=O)C[C@@H](C)[C@]12Oc1c(Cl)c(OC)cc(OC)c1C2=O [GRISEOFULVIN],inhibition zone (IZ),Candida albicans,16.8 mm
COc1ccnc(Nc2n[nH]c(N)c2C#N)c1,IC50,[1],9.1 µM
same,IC50,[2],14.2 µM
O=C(Nc1ccccc1)c1cnn2ccc(-c3ccccn3)nc12,inhibition zone (IZ),Salmonella enterica,20 mm
O=C(Nc1ccccc1)c1cnn2c(-c3ccccn3)ccnc12,inhibition zone (IZ),Salmonella enterica,11 mm
O=C(Nc1ccccc1)c1cnn2c(-c3ccncc3)ccnc12,inhibition zone (IZ),Salmonella enterica,23 mm
same,inhibition zone (IZ),Escherichia coli [3],12 mm
CSc1nn2c(-c3cccs3)c(C#N)c(N)nc2c1-c1nc2ccccc2n1C,Activity,Aspergillus niger [4],0.56
same,Activity,Aspergillus flavus,0.38
same,Activity,Fusarium verticillioides,0.28
O=C(O)Cc1ccccc1Nc1c(Cl)cccc1Cl [DICLOFENAC],Activity,Rattus norvegicus,84%
Nc1nc2c(/N=N/c3ccc(C(F)(F)F)cc3)c(N)nn2c(N)c1/N=N/c1ccc(S(=O)(=O)Nc2ncccn2)cc1,IC50,HepG2,3.4 µg/mL
same,IC50,HCT-116,2.4 µg/mL
same,IC50,MCF7,1.4 µg/mL
CN(C)[C@@H]1C(O)=C(C(N)=O)C(=O)[C@@]2(O)C(O)=C3C(=O)c4c(O)cccc4[C@@](C)(O)[C@H]3C[C@@H]12 [TETRACYCLINE],inhibition zone (IZ),Staphylococcus aureus [5],25 mm
same,inhibition zone (IZ),Bacillus subtilis [6],25 mm
same,MIC,Pseudomonas aeruginosa [7],62.5 µg/mL
same,MIC,Escherichia coli [8],15.6 µg/mL
same,MIC,Bacillus subtilis [9],31.2 µg/mL
same,MIC,Staphylococcus aureus [10],62.5 µg/mL
same,inhibition zone (IZ),Pseudomonas aeruginosa [11],20 mm
same,inhibition zone (IZ),Escherichia coli [3],23 mm
COc1ccc(Nc2nn3c(-c4ccccc4)ccnc3c2C(N)=O)cc1,MIC,Pseudomonas aeruginosa [7],7.81 µg/mL
same,MIC,Escherichia coli [8],15.6 µg/mL
same,MIC,Bacillus subtilis [9],3.9 µg/mL
same,MIC,Staphylococcus aureus [10],7.81 µg/mL
COc1cc(-c2cc(C(=O)N3CCN(C(=O)c4ccccc4NCc4cccs4)CC3)nc3cc(-c4ccccc4)nn23)cc(OC)c1OC,IC50,HeLa,1460 nM
same,IC50,SiHa,1560 nM
COc1cc(-c2cc(C(=O)N3CCN(C(=O)c4ccccc4NCc4ccco4)CC3)nc3cc(-c4ccccc4)nn23)cc(OC)c1OC,IC50,HeLa,1540 nM
same,IC50,SiHa,1610 nM
O=C(c1cc(-c2ccc([N+](=O)[O-])cc2)n2nc(-c3ccccc3)cc2n1)N1CCN(C(=O)c2ccccc2NCc2cccc3c2OCO3)CC1,IC50,HeLa,1990 nM
same,IC50,SiHa,1990 nM
COc1ccc(Nc2nn3c(N)c(C#N)c(-c4cccc(C)c4)nc3c2C(=O)Nc2ccc(Cl)cc2)cc1,inhibition zone (IZ),Aspergillus niger [12],15 mm
CSc1nn2c(C)cc(C)nc2c1-c1nc2ccccc2n1C,Activity,Aspergillus niger [4],0.27
same,Activity,Aspergillus flavus,0.3
same,Activity,Fusarium verticillioides,0.11
same,inhibition zone (IZ),Escherichia coli [3],9 mm
C[C@@H]1C[C@@H]([C@H](O)CC2CC(=O)NC(=O)C2)C(=O)[C@@H](C)C1 [CYCLOHEXIMIDE],inhibition zone (IZ),Candida albicans,32 mm
CN[C@@H]1[C@H](O[C@H]2[C@H](O[C@H]3[C@H](O)[C@@H](O)[C@H](N=C(N)N)[C@@H](O)[C@@H]3N=C(N)N)O[C@@H](C)[C@]2(O)C=O)O[C@@H](CO)[C@H](O)[C@H]1O [STREPTOMYCIN],inhibition zone (IZ),Bacillus subtilis [6],16.2 mm
same,MIC,Escherichia coli [8],5 µg/mL
same,MIC,Bacillus subtilis [9],5 µg/mL
same,inhibition zone (IZ),Escherichia coli [3],16.4 mm
Cc1ccc(-c2nc3c(/N=N/c4cccc(C(F)(F)F)c4)c(N)nn3c(N)c2C#N)cc1,IC50,HepG2,0.64 µg/mL
same,IC50,HCT-116,1.89 µg/mL
same,IC50,MCF7,2.79 µg/mL
C[C@@H]1[C@H](O)[C@@H](C)/C=C/C=C/C=C/C=C/C=C/C=C/C=C/[C@H](O[C@@H]2O[C@H](C)[C@@H](O)[C@H](N)[C@@H]2O)C[C@@H]2O[C@](O)(C[C@@H](O)C[C@@H](O)[C@H](O)CC[C@@H](O)C[C@@H](O)CC(=O)O[C@H]1C)C[C@H](O)[C@H]2C(=O)O [AMPHOTERICIN B],inhibition zone (IZ),Aspergillus niger [12],23.3 mm
Cc1cc(NN2C(=O)CCC2=O)n2ncc(C#N)c2n1,MIC,Escherichia coli [8],10 µg/mL
same,MIC,Bacillus subtilis [9],10 µg/mL
COc1ccc(Nc2nn3c(-c4ccc(C)cc4)ccnc3c2C(N)=O)cc1,MIC,Pseudomonas aeruginosa [7],7.81 µg/mL
same,MIC,Escherichia coli [8],15.6 µg/mL
same,MIC,Bacillus subtilis [9],3.9 µg/mL
same,MIC,Staphylococcus aureus [10],7.81 µg/mL
CC1=Nc2cc(C)nn2C(=O)/C1=N\Nc1ccc(C)cc1,Activity,Rattus norvegicus,96.7%
CC1=CC(c2ccccc2)n2nc(-c3ccccc3)cc2N1 (stereo unspecified),IC50,HepG2,0.64 µg/mL
same,IC50,HCT-116,1.89 µg/mL
same,IC50,MCF7,2.79 µg/mL
CC(=O)O[C@H]1C(=O)[C@@]2(C)[C@H]([C@H](OC(=O)c3ccccc3)[C@]3(O)C[C@H](OC(=O)[C@H](O)[C@@H](NC(=O)c4ccccc4)c4ccccc4)C(C)=C1C3(C)C)[C@]1(OC(C)=O)CO[C@@H]1C[C@@H]2O [PACLITAXEL],IC50,HepG2,4.3 µg/mL
same,IC50,HCT-116,2.9 µg/mL
same,IC50,MCF7,4.7 µg/mL
Cc1ccc(-c2ccnc3c(C(N)=O)c(Nc4ccccc4)nn23)cc1,inhibition zone (IZ),Bacillus subtilis [6],9 mm
same,MIC,Pseudomonas aeruginosa [7],7.81 µg/mL
same,MIC,Escherichia coli [8],15.6 µg/mL
same,MIC,Bacillus subtilis [9],3.9 µg/mL
same,MIC,Staphylococcus aureus [10],7.81 µg/mL
Cc1ccc(N/N=C2\C(=O)n3nc(C)cc3N=C2C(F)(F)F)cc1,Activity,Rattus norvegicus,121.1%
COc1ccnc(Nc2nn3c(SC)c(C#N)c(N)nc3c2C#N)c1,IC50,[1],10.2 µM
same,IC50,[2],27.3 µM
CSc1nn2c(-c3ccccc3)c(C#N)c(N)nc2c1-c1nc2ccccc2n1C,Activity,Aspergillus niger [4],0.51
same,inhibition zone (IZ),Staphylococcus aureus [5],9 mm
same,Activity,Aspergillus flavus,0.36
same,Activity,Fusarium verticillioides,0.19
N#Cc1c(-c2ccccc2)nc2c(/N=N/c3cccc(C(F)(F)F)c3)c(N)nn2c1O,IC50,HepG2,2.41 µg/mL
same,IC50,HCT-116,2.39 µg/mL
same,IC50,MCF7,2.09 µg/mL
COc1ccc(Nc2nn3c(N)c(C#N)c(-c4cc(OC)ccc4OC)nc3c2C(=O)Nc2ccccc2)cc1,inhibition zone (IZ),Bacillus subtilis [6],20 mm
same,inhibition zone (IZ),Escherichia coli [3],16 mm
same,inhibition zone (IZ),Aspergillus niger [12],15 mm
Cc1nc2c(c(C)nc3c(C#N)cnn32)c(Cl)c1CCCl,inhibition zone (IZ),Bacillus subtilis [6],15.1 mm
same,inhibition zone (IZ),Escherichia coli [3],15.3 mm
same,inhibition zone (IZ),Aspergillus niger [12],17.2 mm
CC(=O)c1cnc2c(C(=O)Nc3ccccc3)cnn2c1C,inhibition zone (IZ),Salmonella enterica,16 mm
COc1ccc(Nc2nn3c(N)c(C#N)c(-c4cccc(Cl)c4)nc3c2C(=O)Nc2ccc(Cl)cc2)cc1,inhibition zone (IZ),Aspergillus niger [12],15 mm
CC1=CC(c2ccccc2)n2nc(C)cc2N1 (stereo unspecified),IC50,HepG2,24.8 µg/mL
same,IC50,HCT-116,22.6 µg/mL
same,IC50,MCF7,23.5 µg/mL
CSc1nn2c(C)cc(=O)[nH]c2c1-c1nc2ccccc2n1C,Activity,Aspergillus niger [4],0.26
same,Activity,Aspergillus flavus,0.16
same,Activity,Fusarium verticillioides,0.12
CC(Cc1ccc(O)c(O)c1)C(C)Cc1ccc(O)c(O)c1 (stereo unspecified) [NORDIHYDROGUAIARETIC ACID],IC50,[2],8.5 µM
COc1ccc(Nc2nn3c(N)c(C#N)c(-c4ccc(C)cc4)nc3c2C(=O)Nc2ccc(Cl)cc2)cc1,inhibition zone (IZ),Candida albicans,18 mm
same,inhibition zone (IZ),Aspergillus niger [12],15 mm
Cc1cc(-n2ncc(C#N)c2N)n2ncc(C#N)c2n1,inhibition zone (IZ),Bacillus subtilis [6],16.1 mm
same,inhibition zone (IZ),Candida albicans,17.1 mm
same,inhibition zone (IZ),Escherichia coli [3],14.2 mm
CC1=CC(c2ccccc2)n2nc(-c3ccc(C)cc3)cc2N1 (stereo unspecified),IC50,HepG2,10.3 µg/mL
same,IC50,HCT-116,22.5 µg/mL
same,IC50,MCF7,23.8 µg/mL
Cc1ccc(-c2nc3c(/N=N/c4cccc(C(F)(F)F)c4)c(N)nn3c(O)c2C#N)cc1,IC50,HepG2,8.47 µg/mL
same,IC50,HCT-116,12 µg/mL
same,IC50,MCF7,11.2 µg/mL
COc1cccc2c1C(=O)c1c(O)c3c(c(O)c1C2=O)C[C@@](O)(C(=O)CO)C[C@@H]3O[C@H]1C[C@H](N)[C@H](O)[C@H](C)O1 [DOXORUBICIN],IC50,HepG2,80.9 µM
same,IC50,HCT-116,1.6 µg/mL
CSc1nn2c(-c3ccccc3)c(C#N)c(=O)[nH]c2c1-c1nc2ccccc2n1C,Activity,Aspergillus niger [4],0.43
same,Activity,Aspergillus flavus,0.33
same,Activity,Fusarium verticillioides,0.16
COc1ccc(Nc2nn3c(N)c(C#N)c(-c4cccc(Cl)c4)nc3c2C(=O)Nc2ccccc2)cc1,inhibition zone (IZ),Aspergillus niger [12],15 mm
